The record followed here is patent publication US11427548B2 (Arvinas Operations, Inc., priority 2015, dated 2022).

The target of this test is T1, Androgen Receptor (Homo sapiens, UniProt P10275).
T1 construct: endogenous in cells; host or cells: VCaP cells
T1 sequence (P10275 1-920): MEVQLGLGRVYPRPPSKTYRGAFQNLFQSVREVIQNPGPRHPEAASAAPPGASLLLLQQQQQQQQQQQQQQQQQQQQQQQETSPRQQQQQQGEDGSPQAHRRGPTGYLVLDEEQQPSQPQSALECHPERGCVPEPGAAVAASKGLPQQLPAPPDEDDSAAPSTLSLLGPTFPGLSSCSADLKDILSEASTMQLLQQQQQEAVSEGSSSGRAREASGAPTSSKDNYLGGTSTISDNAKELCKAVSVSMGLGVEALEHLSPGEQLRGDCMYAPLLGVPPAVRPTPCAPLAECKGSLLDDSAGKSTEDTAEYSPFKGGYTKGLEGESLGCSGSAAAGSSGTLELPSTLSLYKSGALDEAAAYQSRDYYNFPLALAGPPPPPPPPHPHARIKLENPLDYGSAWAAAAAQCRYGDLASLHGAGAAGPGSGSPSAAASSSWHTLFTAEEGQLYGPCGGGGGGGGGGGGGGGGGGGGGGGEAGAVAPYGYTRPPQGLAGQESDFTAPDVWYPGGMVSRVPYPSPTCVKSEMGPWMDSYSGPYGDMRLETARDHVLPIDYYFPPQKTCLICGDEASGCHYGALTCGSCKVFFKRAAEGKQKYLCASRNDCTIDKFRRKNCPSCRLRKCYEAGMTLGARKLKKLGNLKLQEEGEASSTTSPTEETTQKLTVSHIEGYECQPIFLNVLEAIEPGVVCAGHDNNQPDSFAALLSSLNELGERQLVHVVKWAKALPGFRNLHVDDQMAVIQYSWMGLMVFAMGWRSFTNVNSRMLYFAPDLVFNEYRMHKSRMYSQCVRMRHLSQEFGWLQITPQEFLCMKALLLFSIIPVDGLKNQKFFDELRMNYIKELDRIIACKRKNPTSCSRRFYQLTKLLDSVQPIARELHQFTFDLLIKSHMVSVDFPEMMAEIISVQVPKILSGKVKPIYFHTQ
Nature of the test: Androgen Receptor ELISA assay (PathScan AR ELISA) in VCaP cells: AR degradation, Dmax and DC50. It counts as cell-based. The gist of the method:
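VCaP cells, 30,000/well, grown ≥3 days in phenol red-free RPMI with 5% charcoal-stripped FBS; compound added in 0.1% DMSO with 0.1 nM R1881, 7 half-log doses, 24 h. Lysate AR quantified by PathScan sandwich ELISA, HRP/TMB read at 450 nm, giving DC50 and Dmax.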

The mark [1] stands for this setting: VCaP cells; Table 36; read-out: VCaP DC50.
Where [2] appears, read: VCaP, read-out: VCaP Dmax (%), VCaP cells; Table 36.
[3] abbreviates: read-out: VCaP DC50; VCaP cells; Table 36.
Where [4] appears, read: VCaP, VCaP cells; Table 36; read-out: VCaP Dmax (%).

Like-named read-outs stand apart in the source and are kept apart here.

For the compound `Cc1ncsc1-c1ccc([C@H](C)NC(=O)[C@@H]2C[C@@H](O)CN2C(=O)[C@H](C(C)C)n2cc(-c3ccnc(OC4CN(c5ncc(C(=O)NC6C(C)(C)C(Oc7ccc(C#N)c(Cl)c7)C6(C)C)cn5)C4)c3)cn2)cc1` (stereo partly drawn) [Example 604, N-(3-(3-chloro-4-cyanophenoxy)-2,2,4,4-tetramethylcyclobutyl)-2-(3-((4-(1-((S)-1-((2S,4R)-4-hydroxy-2-(((S)-1-(4-(4-methylthiazol-5-yl)phenyl)ethyl)carbam-oyl)pyrrolidin-1-yl)-3-methyl-1-oxobutan-2-yl)-1H-pyrazol-4-yl)pyridin-2-yl)oxy)azetidin-1-yl)pyrimidine-5-carboxamide], the DC50 under setting [1] is below 50 nM. In addition, the greatest degradation seen (Dmax) under setting [2] lay within 51 to 70%.
On to `Cc1ncsc1-c1ccc([C@H](C)NC(=O)C2C[C@@H](O)CN2C(=O)[C@@H](NC(=O)c2cc3ccc(OC[C@H]4C[C@H](COc5ccc(N6C(=S)N(c7ccc(C#N)c(C(F)(F)F)c7)C(=O)C6(C)C)cc5)C4)cc3o2)C(C)(C)C)cc1` (stereo partly drawn) [Example 605, 1-(2-(6-((3-((4-(3-(4-cyano-3-(trifluoromethyl)phenyl)-5,5-dimethyl-4-oxo-2-thioxoimidazolidin-1-yl)phenoxy)methyl)cyclo-butyl)methoxy)benzo-furan-2-carboxamido)-3,3-dimethylbutanoyl)-4-hydroxy-N-(1-(4-(4-methylthiazol-5-yl)phenyl)ethyl)pyrroli-dine-2-carboxamide], for which the Dmax (VCaP, read-out: VCaP Dmax (%)) is below 25%. In addition, the DC50 under setting [3] is above 501 nM.
For `Cc1nccn1-c1ccc([C@H](C)NC(=O)C2C[C@@H](O)CN2C(=O)C(NC(=O)COCC2CCN(c3ccc(C(=O)N[C@H]4C(C)(C)[C@H](Oc5ccc(C#N)c(Cl)c5)C4(C)C)cn3)CC2)C(C)(C)C)cc1` (stereo partly drawn) [Example 606, N-((1r,3r)-3-(3-chloro-4-cyanophenoxy)-2,2,4,4-tetramethylcyclobutyl)-6-(4-((2-(((S)-1-((2S,4R)-4-hydroxy-2-(((S)-1-(4-(2-methyl-1H-imidazol-1-yl)phenyl)ethyl)carbam-oyl)pyrrolidin-1-yl)-3,3-dimethyl-1-oxobutan-2-yl)amino)-2-oxoethoxy)methyl)piper-idin-1-yl)nicotinamide], under setting [1], the DC50 was below 50 nM. Moreover, the Dmax under setting [4] was 51 to 70%.
On to `Cc1ncsc1-c1ccc([C@H](C)NC(=O)[C@@H]2C[C@@H](O)CN2C(=O)[C@@H](NC(=O)COCCCCCNc2ccc(C(=O)N[C@H]3C(C)(C)[C@H](Oc4ccc(C#N)c(Cl)c4)C3(C)C)nn2)C(C)(C)C)cc1` [Example 607, N-((1r,3r)-3-(3-chloro-4-cyanophenoxy)-2,2,4,4-tetramethylcyclobutyl)-6-((5-(2-(((S)-1-((2S,4R)-4-hydroxy-2-(((S)-1-(4-(4-methylthiazol-5-yl)phenyl)ethyl)carbam-oyl)pyrrolidin-1-yl)-3,3-dimethyl-1-oxobutan-2-yl)amino)-2-oxoethoxy)pentyl)amino) pyridazine-3-carboxamide], for which, under setting [1], the DC50 is above 501 nM. Further, the Dmax under setting [2] was in the range of 26 to 50%.
On to `Cc1ncsc1-c1ccc([C@H](C)NC(=O)[C@@H]2C[C@@H](O)CN2C(=O)[C@H](C(C)C)n2cc(-c3ccnc(N4CC[C@H](Oc5ccc(N6C(=S)N(c7ccc(C#N)c(C(F)(F)F)c7)C(=O)C6(C)C)cc5)C4)c3)cn2)cc1` [Example 609], for which the Dmax (VCaP, read-out: VCaP Dmax (%)) was below 25%. Moreover, the DC50 under setting [3] is above 501 nM.
In the case of `Cc1ncsc1-c1ccc([C@H](C)NC(=O)[C@@H]2C[C@@H](O)CN2C(=O)[C@@H](C(C)C)n2cc(-c3ccnc(N4CC[C@H](Oc5ccc(N6C(=S)N(c7ccc(C#N)c(C(F)(F)F)c7)C(=O)C6(C)C)cc5)C4)c3)cn2)cc1` [Example 610, (2S,4R)-1-((R)-2-(4-(2-((S)-3-(4-(3-(4-cyano-3-(trifluoromethyl)phenyl)-5,5-dimethyl-4-oxo-2-thioxoimidazolidin-1-yl)phenoxy)pyrrolidin-1-yl)pyridin-4-yl)-1H-pyrazol-1-yl)-3-methylbutanoyl)-4-hydroxy-N-((S)-1-(4-(4-methylthiazol-5-yl)phenyl)ethyl)pyrroli-dine-2-carboxamide], for the setting “VCaP, read-out: VCaP Dmax (%)”, the Dmax is below 25%. Further, the 50% degradation concentration (DC50) under setting [3] is above 501 nM.
For `Cc1nccn1-c1ccc([C@H](C)NC(=O)[C@@H]2C[C@@H](O)CN2C(=O)[C@H](C(C)C)n2cc(OCCCOCCCCCOc3ccc(N4C(=S)N(c5ccc(C#N)c(C(F)(F)F)c5)C(=O)C4(C)C)cc3)cn2)cc1` [Example 611, (2S,4R)-1-((S)-2-(4-(3-((5-(4-(3-(4-cyano-3-(trifluoromethyl)phenyl)-5,5-dimethyl-4-oxo-2-thioxoimidazolidin-1-yl)phenoxy)pentyl)oxy)propoxy)-1H-pyrazol-1-yl)-3-methylbutanoyl)-4-hydroxy-N-((S)-1-(4-(2-methyl-1H-imidazol-1-yl)phenyl)ethyl)pyrrolidine-2-carboxamide], the Dmax (VCaP, read-out: VCaP Dmax (%)) was below 25%. Under setting [3], the DC50 is above 501 nM.
`Cc1ncsc1-c1ccc([C@H](C)NC(=O)[C@@H]2C[C@@H](O)CN2C(=O)C(NC(=O)COCCCOCC[C@@H](O)CCOc2ccc(N3C(=S)N(c4ccc(C#N)c(C(F)(F)F)c4)C(=O)C3(C)C)cc2)C(C)(C)C)cc1` (stereo partly drawn) [Example 613, 1-(2-(2-(3-((5-(4-(3-(4-cyano-3-(trifluoromethyl)phenyl)-5,5-dimethyl-4-oxo-2-thioxoimidazolidin-1-yl)phenoxy)-3-hydroxypentyl)oxy)pro-poxy)acetamido)-3,3-dimethylbutanoyl)-4-hydroxy-N-(1-(4-(4-methylthiazol-5-yl)phenyl)ethyl)pyrrolidine-2-carboxamide]: the Dmax (VCaP, read-out: VCaP Dmax (%)) lay in the range of 26 to 50%. For the same compound, the DC50 under setting [3] was above 501 nM.
The corresponding values for `Cc1ncsc1-c1ccc([C@H](C)NC(=O)[C@@H]2C[C@@H](O)CN2C(=O)[C@@H](NC(=O)CN2CCO[C@H](COCCCCCOc3ccc(N4C(=S)N(c5ccc(C#N)c(C(F)(F)F)c5)C(=O)C4(C)C)cc3)C2)C(C)(C)C)cc1` [Example 614, (2S,4R)-1-((S)-2-(2-((S)-2-(((5-(4-(3-(4-cyano-3-(trifluoromethyl)phenyl)-5,5-dimethyl-4-oxo-2-thioxoimidazolidin-1-yl)phenoxy)pentyl)oxy)methyl)morpholino)ace-tamido)-3,3-dimethylbutanoyl)-4-hydroxy-N-((S)-1-(4-(4-methylthiazol-5-yl)phenyl)ethyl)pyrrolidine-2-carboxamide] are 26 to 50% and above 501 nM.
As for `Cc1ncsc1-c1ccc([C@H](C)NC(=O)[C@@H]2C[C@@H](O)CN2C(=O)[C@@H](NC(=O)CN2CCN(CCOc3ccc(C(=O)N[C@H]4C(C)(C)[C@H](Oc5ccc(C#N)c(Cl)c5)C4(C)C)cc3)CC2)C(C)(C)C)cc1` [Example 615, (2S,4R)-1-((S)-2-(2-(4-(2-(4-(((1r,3r)-3-(3-chloro-4-cyanophenoxy)-2,2,4,4-tetramethylcyclobutyl)carbamoyl)phenoxy)eth-yl)piperazin-1-yl)acetamido)-3,3-dimethylbutanoyl)-4-hydroxy-N-((S)-1-(4-(4-methylthiazol-5-yl)phenyl)ethyl)pyrrolidine-2-carboxamide], the DC50 under setting [1] is below 50 nM. The Dmax under setting [4] was above 71%.
`Cc1ncsc1-c1ccc([C@H](C)NC(=O)[C@@H]2C[C@@H](O)CN2C(=O)C(C(C)C)n2cnc(-c3ccnc(N4CC[C@H](Oc5ccc(N6C(=S)N(c7ccc(C#N)c(C(F)(F)F)c7)C(=O)C6(C)C)cc5)C4)c3)c2)cc1` (stereo partly drawn) [Example 617, 1-(2-(4-(2-(3-(4-(3-(4-cyano-3-(trifluoromethyl)phenyl)-5,5-dimethyl-4-oxo-2-thioxoimidazolidin-1-yl)phenoxy)pyrrolidin-1-yl)pyridin-4-yl)-1H-imidazol-1-yl)-3-methylbutanoyl)-4-hydroxy-N-(1-(4-(4-methylthiazol-5-yl)phenyl)ethyl)pyrrolidine-2-carboxamide]: under “VCaP, read-out: VCaP Dmax (%)”, the maximal degradation (Dmax) was below 25%. For the same compound, under setting [3], the DC50 was above 501 nM.
On to `Cc1ncsc1-c1ccc([C@H](C)NC(=O)[C@@H]2C[C@@H](O)CN2C(=O)[C@@H](NC(=O)COCCCOCCCCCNc2ccc(N3C(=S)N(c4ccc(C#N)c(C(F)(F)F)c4)C(=O)C3(C)C)cn2)C(C)(C)C)cc1` [Example 618, (2S,4R)-1-((S)-2-(2-(3-((5-((5-(3-(4-cyano-3-(trifluoromethyl)phenyl)-5,5-dimethyl-4-oxo-2-thioxoimidazolidin-1-yl)pyridin-2-yl)amino)pentyl)oxy)pro-poxy)acetamido)-3,3-dimethylbutanoyl)-4-hydroxy-N-((S)-1-(4-(4-methylthiazol-5-yl)phenyl)ethyl)pyrrolidine-2-carboxamide], for which the greatest degradation seen (Dmax) (VCaP, read-out: VCaP Dmax (%)) fell in the range of 51 to 70%. Further, the DC50 under setting [3] was below 50 nM.

What is called DC50 is the midpoint of the concentration-degradation curve. One may read the Dmax as the largest share of the target that was removed.
